Assay results as given in PubChem BioAssay (NCI).
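Five compound concentrations were applied to cells in 96-well plates for 48 hours; endpoints were derived by simple linear interpolation of the resulting dose-response curve. Definition used: TGI = concentration required for complete inhibition of growth.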

How the values were obtained:
Assay in all cases: DTP human tumour cell line panel, 48 h
[1] = system: SNB-78 CNS
[2] = system: OVCAR-4 ovarian
[3] = system: DMS 273 small cell lung
[4] = system: SF-295 CNS
[5] = system: 786-0 renal
[6] = system: DLD-1 colon
[7] = system: CCRF-CEM leukemia
[8] = system: LOX IMVI melanoma
[9] = system: K-562 leukemia
[10] = system: UACC-257 melanoma
[11] = system: LXFL 529 NSCLC
[12] = system: SN12C renal
[13] = system: OVCAR-5 ovarian
[14] = system: CAKI-1 renal
[15] = system: RPMI-8226 leukemia
[16] = system: A498 renal
[17] = system: HOP-18 NSCLC
[18] = system: SK-MEL-28 melanoma
[19] = system: IGROV1 ovarian
[20] = system: OVCAR-8 ovarian
[21] = system: HCT-15 colon
[22] = system: EKVX NSCLC
[23] = system: HOP-62 NSCLC
[24] = system: KM12 colon
[25] = system: U251 CNS
[26] = system: HCC-2998 colon
[27] = system: HL-60(TB) leukemia
[28] = system: HT29 colon
[29] = system: RXF 393 renal
[30] = system: UO-31 renal
[31] = system: XF 498 CNS
[32] = system: SR leukemia
[33] = system: TK-10 renal
[34] = system: SK-OV-3 ovarian
[35] = system: NCI-H226 lung
[36] = system: A549 NSCLC
[37] = system: OVCAR-3 ovarian
[38] = system: DMS 114 small cell lung
[39] = system: HCT-116 colon
[40] = system: SF-268 CNS
[41] = system: MOLT-4 leukemia
[42] = system: SK-MEL-5 melanoma
[43] = system: KM20L2 colon
[44] = system: M19-MEL melanoma
[45] = system: NCI-H460 lung
[46] = system: MALME-3M melanoma
[47] = system: M14 melanoma
[48] = system: COLO 205 colon
[49] = system: HOP-92 NSCLC
[50] = system: NCI-H23 lung
[51] = system: ACHN renal
[52] = system: SNB-75 CNS
[53] = system: SF-539 CNS
[54] = system: SNB-19 CNS
[55] = system: NCI-H522 lung
[56] = system: SW-620 colon
[57] = system: UACC-62 melanoma
[58] = system: SK-MEL-2 melanoma
[59] = system: PC-3 prostate
[60] = system: NCI/ADR-RES ovarian
[61] = system: HS 578T breast
[62] = system: BT-549 breast
[63] = system: T-47D breast
[64] = system: MDA-MB-435
[65] = system: MDA-N
[66] = system: MCF7 breast
[67] = system: MDA-MB-231 breast
[68] = system: DU-145 prostate

For `Cn1cnc([N+](=O)[O-])c1Sc1nc2ccccc2[nH]1`, the TGI [1] was 88 µM, the TGI [2] was over 100 µM and the TGI [3] was 3.43 µM. The TGI [4] was over 100 µM, the TGI [5] was over 100 µM and the TGI [6] was 22.2 µM. The TGI [7] was 90.1 µM, the TGI [8] was 51 µM and the TGI [9] was over 100 µM. The TGI [10] was 34.4 µM, the TGI [11] was 20.1 µM and the TGI [12] was 30.2 µM. It also gave a TGI [13] of over 100 µM, a TGI [14] of 17.2 µM and a TGI [15] of 56.4 µM. The TGI [16] was 55.9 µM, the TGI [17] was over 100 µM and the TGI [18] was 26.1 µM. It also gave a TGI [19] of 54.4 µM, a TGI [20] of 30.4 µM and a TGI [21] of 33.1 µM. For the same compound, the TGI [22] was 36.9 µM, the TGI [23] was over 100 µM and the TGI [24] was 48.4 µM. It also gave a TGI [25] of 74.5 µM, a TGI [26] of 26.9 µM and a TGI [27] of over 100 µM. It also gave a TGI [28] of over 100 µM, a TGI [29] of 25.3 µM and a TGI [30] of 51.9 µM. It also gave a TGI [31] of 18.5 µM, a TGI [32] of 45.1 µM and a TGI [33] of 40.8 µM. The TGI [34] was 61.8 µM, the TGI [35] was 78.1 µM and the TGI [36] was 54 µM. For the same compound, the TGI [37] was over 100 µM, the TGI [38] was 21.7 µM and the TGI [39] was 30.1 µM. It also gave a TGI [40] of 38.5 µM, a TGI [41] of 29.9 µM and a TGI [42] of 26.2 µM. It also gave a TGI [43] of 61.5 µM, a TGI [44] of 29.7 µM and a TGI [45] of 64.9 µM. For the same compound, the TGI [46] was 35 µM, the TGI [47] was 56.3 µM and the TGI [48] was 23.1 µM. For the same compound, the TGI [49] was 40.8 µM, the TGI [50] was 48.4 µM and the TGI [51] was 59.9 µM. For the same compound, the TGI [52] was 49.9 µM and the TGI [53] was 27.8 µM.
In the case of `O=c1cc(-c2ccccc2)oc2cc(OCCCOc3ccc4c(=O)cc(-c5ccccc5)oc4c3)ccc12`, the TGI [1] was over 100 µM, the TGI [54] was over 100 µM and the TGI [2] was over 100 µM. For the same compound, the TGI [3] was over 100 µM, the TGI [55] was over 100 µM and the TGI [4] was over 100 µM. The TGI [5] was over 100 µM, the TGI [6] was over 100 µM and the TGI [7] was over 100 µM. The TGI [8] was over 100 µM, the TGI [9] was over 100 µM and the TGI [10] was over 100 µM. The TGI [11] was over 100 µM, the TGI [12] was over 100 µM and the TGI [13] was over 100 µM. It also gave a TGI [14] of over 100 µM, a TGI [56] of over 100 µM and a TGI [15] of over 100 µM. The TGI [57] was over 100 µM, the TGI [58] was over 100 µM and the TGI [17] was over 100 µM. It also gave a TGI [18] of over 100 µM, a TGI [19] of over 100 µM and a TGI [20] of over 100 µM. The TGI [21] was over 100 µM, the TGI [22] was over 100 µM and the TGI [23] was over 100 µM. It also gave a TGI [24] of over 100 µM, a TGI [25] of over 100 µM and a TGI [26] of over 100 µM. It also gave a TGI [27] of over 100 µM, a TGI [28] of over 100 µM and a TGI [29] of over 100 µM. For the same compound, the TGI [31] was over 100 µM, the TGI [32] was over 100 µM and the TGI [33] was over 100 µM. For the same compound, the TGI [34] was over 100 µM, the TGI [35] was over 100 µM and the TGI [36] was over 100 µM. For the same compound, the TGI [37] was over 100 µM, the TGI [38] was over 100 µM and the TGI [39] was over 100 µM. The TGI [41] was over 100 µM, the TGI [42] was over 100 µM and the TGI [43] was over 100 µM. The TGI [44] was over 100 µM, the TGI [45] was over 100 µM and the TGI [46] was over 100 µM. For the same compound, the TGI [47] was over 100 µM, the TGI [48] was over 100 µM and the TGI [49] was over 100 µM. For the same compound, the TGI [50] was over 100 µM, the TGI [51] was over 100 µM and the TGI [52] was over 100 µM. It also gave a TGI [53] of over 100 µM.
In the case of `CCc1cc(Cc2cc(CC)c(NC(=O)C(=O)Cc3ccccn3)c(CC)c2Cl)c(Cl)c(CC)c1NC(=O)C(=O)Cc1ccccn1`, the TGI [1] was over 100 µM, the TGI [54] was over 100 µM and the TGI [2] was over 100 µM. It also gave a TGI [3] of over 100 µM, a TGI [4] of over 100 µM and a TGI [5] of over 100 µM. The TGI [6] was over 100 µM, the TGI [7] was over 100 µM and the TGI [8] was over 100 µM. The TGI [9] was over 100 µM, the TGI [10] was over 100 µM and the TGI [11] was over 100 µM. The TGI [12] was over 100 µM, the TGI [13] was over 100 µM and the TGI [14] was over 100 µM. For the same compound, the TGI [56] was 31.9 µM, the TGI [15] was over 100 µM and the TGI [57] was over 100 µM. It also gave a TGI [58] of over 100 µM, a TGI [16] of over 100 µM and a TGI [17] of over 100 µM. It also gave a TGI [18] of over 100 µM, a TGI [19] of over 100 µM and a TGI [20] of over 100 µM. The TGI [21] was over 100 µM, the TGI [22] was over 100 µM and the TGI [23] was over 100 µM. The TGI [24] was over 100 µM, the TGI [25] was 46.1 µM and the TGI [26] was over 100 µM. It also gave a TGI [27] of over 100 µM, a TGI [28] of over 100 µM and a TGI [30] of over 100 µM. The TGI [31] was over 100 µM, the TGI [32] was over 100 µM and the TGI [33] was over 100 µM. It also gave a TGI [34] of over 100 µM, a TGI [35] of over 100 µM and a TGI [36] of over 100 µM. It also gave a TGI [37] of over 100 µM, a TGI [38] of over 100 µM and a TGI [39] of over 100 µM. The TGI [40] was over 100 µM, the TGI [41] was over 100 µM and the TGI [42] was over 100 µM. The TGI [43] was over 100 µM, the TGI [44] was over 100 µM and the TGI [45] was over 100 µM. For the same compound, the TGI [46] was over 100 µM, the TGI [47] was over 100 µM and the TGI [48] was over 100 µM. It also gave a TGI [49] of over 100 µM, a TGI [50] of over 100 µM and a TGI [51] of over 100 µM. The TGI [52] was over 100 µM and the TGI [53] was over 100 µM.
Compound `N=C(N)SCc1ccc2c(c1)Sc1ccccc1O2` has a TGI [59] of 16.5 µM, a TGI [54] of 30.6 µM and a TGI [2] of 18.1 µM. The TGI [55] was 3.09 µM, the TGI [4] was 24.2 µM and the TGI [5] was 24.6 µM. It also gave a TGI [7] of over 54.1 µM, a TGI [8] of 60.4 µM and a TGI [9] of over 100 µM. The TGI [10] was 14.2 µM, the TGI [12] was 46.9 µM and the TGI [13] was 25.3 µM. For the same compound, the TGI [14] was 19.7 µM, the TGI [56] was 34 µM and the TGI [15] was over 36.8 µM. The TGI [57] was 19.7 µM, the TGI [58] was 15.6 µM and the TGI [60] was 34.6 µM. The TGI [16] was 52.3 µM, the TGI [18] was 38.7 µM and the TGI [19] was 11.9 µM. The TGI [20] was 32.5 µM, the TGI [61] was 16.5 µM and the TGI [21] was 21.7 µM. For the same compound, the TGI [22] was 27 µM, the TGI [23] was 34.1 µM and the TGI [24] was 16.4 µM. For the same compound, the TGI [25] was over 71.4 µM, the TGI [26] was 6.89 µM and the TGI [27] was over 63 µM. The TGI [28] was 8.54 µM, the TGI [29] was 14 µM and the TGI [30] was 10.6 µM. For the same compound, the TGI [32] was over 31.6 µM, the TGI [33] was 14.1 µM and the TGI [62] was 16.1 µM. For the same compound, the TGI [63] was 43 µM, the TGI [34] was 27 µM and the TGI [35] was 31.1 µM. The TGI [36] was 23 µM, the TGI [37] was 16.9 µM and the TGI [39] was 22.3 µM. The TGI [64] was 19.1 µM, the TGI [40] was 27.8 µM and the TGI [41] was over 93.3 µM. For the same compound, the TGI [65] was 19 µM, the TGI [42] was 3.11 µM and the TGI [45] was 21.5 µM. It also gave a TGI [46] of 23.1 µM, a TGI [47] of 7.55 µM and a TGI [66] of 13.5 µM. The TGI [48] was 17.8 µM, the TGI [49] was 26.8 µM and the TGI [67] was 45.2 µM. The TGI [50] was 21.5 µM, the TGI [51] was 16.9 µM and the TGI [68] was 28.7 µM. For the same compound, the TGI [52] was 18.2 µM and the TGI [53] was 7.79 µM.
